Literature values as cited in patent publication US20190274302A1, “COMPOSITIONS FOR ACTIVE TREATING AND […] DISEASES” (priority 2018, published 2019).
Where two headings read alike, the source gives them in different places.

SMILES	pH (1 mM)	pH (10 mM)	pH (100 mM)
O=C(O)/C=C(\CC(=O)O)C(=O)O [trans-aconitic acid]	3.14	2.48	1.92
O=C1O[C@H]([C@@H](O)CO)C(O)=C1O [ascorbic acid]	3.59	3.04	2.53
CCC(=O)O [propanoic acid]	3.96	3.44	2.94
O=C(O)CC(=O)O [malonic acid]	3.17	2.50	1.94
O=C(O)C(=O)O [oxalic acid]	3.00	2.09	1.31
O=CO [formic acid]	3.47	2.91	2.38
O=C(O)c1ccccc1 [benzoic acid]	3.66	3.12	2.60
O=C(O)c1ccccc1O [salicylic acid]	3.21	2.57	2.02
O=C(O)CC(O)C(=O)O (stereo not drawn) [malic acid]	3.33	2.74	2.21
CC(O)C(=O)O (stereo not drawn) [lactic acid]	3.51	2.96	2.44
O=C(O)/C=C(/CC(=O)O)C(=O)O [cis-aconitic acid]	3.05	2.21	1.55
Oc1ccccc1 [phenol]	6.47	5.99	5.49
O=C(O)CC(O)(CC(=O)O)C(=O)O [citric acid]	3.24	2.62	2.08
CC(=O)O [acetic acid]	3.91	3.39	2.88
